# Reference: ChEMBL document CHEMBL1151464 (2008)
# What was measured:
# Format in all cases: functional
# [1] = test system: Acinetobacter baumannii; test: Antibacterial activity against Acinetobacter baumannii isolate 929 after 24 hrs by CLSI microdilution method; details: isolate 929, 24 h
# [2] = test system: Acinetobacter baumannii; test: Antibacterial activity against Acinetobacter baumannii isolate 930 after 24 hrs by CLSI microdilution method; details: isolate 930, 24 h
# [3] = test system: Acinetobacter baumannii; test: Antibacterial activity against Acinetobacter baumannii isolate 932 expressing OXA-24 and OXA-51 beta-lactamase after 24 hrs by CLSI microdilution method; details: isolate 932, 24 h
# [4] = test system: Acinetobacter baumannii; test: Antibacterial activity against Acinetobacter baumannii isolate 934 after 24 hrs by CLSI microdilution method; details: isolate 934, 24 h
# [5] = test system: Acinetobacter baumannii; test: Antibacterial activity against Acinetobacter baumannii isolate 931 after 24 hrs by CLSI microdilution method; details: isolate 931, 24 h
# [6] = test system: Acinetobacter baumannii; test: Antibacterial activity against Acinetobacter baumannii isolate 920 after 24 hrs by CLSI microdilution method; details: isolate 920, 24 h
# [7] = test system: Acinetobacter baumannii; test: Antibacterial activity against Acinetobacter baumannii isolate 921 after 24 hrs by CLSI microdilution method; details: isolate 921, 24 h
# [8] = test system: Pseudomonas aeruginosa; test: Antibacterial activity against Pseudomonas aeruginosa isolate 323 after 24 hrs by CLSI microdilution method; details: isolate 323, 24 h
# [9] = test system: Pseudomonas aeruginosa; test: Antibacterial activity against Pseudomonas aeruginosa isolate 324 after 24 hrs by CLSI microdilution method; details: isolate 324, 24 h
# [10] = test system: Pseudomonas aeruginosa; test: Antibacterial activity against Pseudomonas aeruginosa isolate 326 after 24 hrs by CLSI microdilution method; details: isolate 326, 24 h
# [11] = test system: Pseudomonas aeruginosa; test: Antibacterial activity against Pseudomonas aeruginosa isolate 327 after 24 hrs by CLSI microdilution method; details: isolate 327, 24 h
# [12] = test system: Pseudomonas aeruginosa; test: Antibacterial activity against Pseudomonas aeruginosa isolate 328 after 24 hrs by CLSI microdilution method; details: isolate 328, 24 h
# [13] = test system: Pseudomonas aeruginosa; test: Antibacterial activity against Pseudomonas aeruginosa isolate 329 after 24 hrs by CLSI microdilution method; details: isolate 329, 24 h
# [14] = test system: Pseudomonas aeruginosa; test: Antibacterial activity against Pseudomonas aeruginosa isolate 331 after 24 hrs by CLSI microdilution method; details: isolate 331, 24 h
# [15] = test system: Pseudomonas aeruginosa; test: Antibacterial activity against Pseudomonas aeruginosa isolate 332 after 24 hrs by CLSI microdilution method; details: isolate 332, 24 h
# [16] = test system: Pseudomonas aeruginosa; test: Antibacterial activity against Pseudomonas aeruginosa isolate 337 after 24 hrs by CLSI microdilution method; details: isolate 337, 24 h
# [17] = test system: Pseudomonas aeruginosa; test: Antibacterial activity against Pseudomonas aeruginosa isolate 339 after 24 hrs by CLSI microdilution method; details: isolate 339, 24 h
# [18] = test system: Pseudomonas aeruginosa; test: Antibacterial activity against Pseudomonas aeruginosa isolate 341 after 24 hrs by CLSI microdilution method; details: isolate 341, 24 h
# [19] = test system: Pseudomonas aeruginosa; test: Antibacterial activity against Pseudomonas aeruginosa isolate 344 after 24 hrs by CLSI microdilution method; details: isolate 344, 24 h
# [20] = test system: Pseudomonas aeruginosa; test: Antibacterial activity against Pseudomonas aeruginosa isolate 345 after 24 hrs by CLSI microdilution method; details: isolate 345, 24 h
# [21] = test system: Pseudomonas aeruginosa; test: Antibacterial activity against Pseudomonas aeruginosa isolate 346 after 24 hrs by CLSI microdilution method; details: isolate 346, 24 h
# [22] = test system: Pseudomonas aeruginosa; test: Antibacterial activity against Pseudomonas aeruginosa isolate 348 after 24 hrs by CLSI microdilution method; details: isolate 348, 24 h
# [23] = test system: Pseudomonas aeruginosa; test: Antibacterial activity against Pseudomonas aeruginosa isolate 350 after 24 hrs by CLSI microdilution method; details: isolate 350, 24 h
# [24] = test system: Pseudomonas aeruginosa; test: Antibacterial activity against Pseudomonas aeruginosa isolate 352 after 24 hrs by CLSI microdilution method; details: isolate 352, 24 h
# [25] = test system: Pseudomonas aeruginosa; test: Antibacterial activity against Pseudomonas aeruginosa isolate 353 after 24 hrs by CLSI microdilution method; details: isolate 353, 24 h
# [26] = test system: Pseudomonas aeruginosa; test: Antibacterial activity against Pseudomonas aeruginosa isolate 354 after 24 hrs by CLSI microdilution method; details: isolate 354, 24 h
# [27] = test system: Pseudomonas aeruginosa; test: Antibacterial activity against Pseudomonas aeruginosa isolate 355 after 24 hrs by CLSI microdilution method; details: isolate 355, 24 h
# [28] = test system: Pseudomonas aeruginosa; test: Antibacterial activity against Pseudomonas aeruginosa isolate 356 after 24 hrs by CLSI microdilution method; details: isolate 356, 24 h
# [29] = test system: Pseudomonas aeruginosa; test: Antibacterial activity against Pseudomonas aeruginosa isolate 358 after 24 hrs by CLSI microdilution method; details: isolate 358, 24 h
# [30] = test system: Pseudomonas aeruginosa; test: Antibacterial activity against Pseudomonas aeruginosa isolate 359 after 24 hrs by CLSI microdilution method; details: isolate 359, 24 h
# [31] = test system: Pseudomonas aeruginosa; test: Antibacterial activity against Pseudomonas aeruginosa isolate 360 after 24 hrs by CLSI microdilution method; details: isolate 360, 24 h
# [32] = test system: Pseudomonas aeruginosa; test: Antibacterial activity against Pseudomonas aeruginosa isolate 363 after 24 hrs by CLSI microdilution method; details: isolate 363, 24 h
# [33] = test system: Pseudomonas aeruginosa; test: Antibacterial activity against Pseudomonas aeruginosa isolate 365 after 24 hrs by CLSI microdilution method; details: isolate 365, 24 h
# [34] = test system: Pseudomonas aeruginosa; test: Antibacterial activity against Pseudomonas aeruginosa isolate 366 after 24 hrs by CLSI microdilution method; details: isolate 366, 24 h
# [35] = test system: Pseudomonas aeruginosa; test: Antibacterial activity against Pseudomonas aeruginosa isolate 367 after 24 hrs by CLSI microdilution method; details: isolate 367, 24 h
# [36] = test system: Pseudomonas aeruginosa; test: Antibacterial activity against Pseudomonas aeruginosa isolate 369 after 24 hrs by CLSI microdilution method; details: isolate 369, 24 h
# [37] = test system: Pseudomonas aeruginosa; test: Antibacterial activity against Pseudomonas aeruginosa isolate 370 after 24 hrs by CLSI microdilution method; details: isolate 370, 24 h
# [38] = test system: Pseudomonas aeruginosa; test: Antibacterial activity against Pseudomonas aeruginosa isolate 371 after 24 hrs by CLSI microdilution method; details: isolate 371, 24 h
# [39] = test system: Pseudomonas aeruginosa; test: Antibacterial activity against Pseudomonas aeruginosa isolate 373 after 24 hrs by CLSI microdilution method; details: isolate 373, 24 h
# [40] = test system: Pseudomonas aeruginosa; test: Antibacterial activity against Pseudomonas aeruginosa isolate 375 after 24 hrs by CLSI microdilution method; details: isolate 375, 24 h
# [41] = test system: Pseudomonas aeruginosa; test: Antibacterial activity against Pseudomonas aeruginosa isolate 379 expressing VIM2 beta-lactamase after 24 hrs by CLSI microdilution method; details: isolate 379, 24 h
# [42] = test system: Acinetobacter baumannii; test: Antibacterial activity against Acinetobacter baumannii isolate 883 after 24 hrs by CLSI microdilution method; details: isolate 883, 24 h
# [43] = test system: Acinetobacter baumannii; test: Antibacterial activity against Acinetobacter baumannii isolate 884 after 24 hrs by CLSI microdilution method; details: isolate 884, 24 h
# [44] = test system: Acinetobacter baumannii; test: Antibacterial activity against Acinetobacter baumannii isolate 885 after 24 hrs by CLSI microdilution method; details: isolate 885, 24 h
# [45] = test system: Acinetobacter baumannii; test: Antibacterial activity against Acinetobacter baumannii isolate 888 after 24 hrs by CLSI microdilution method; details: isolate 888, 24 h
# [46] = test system: Acinetobacter baumannii; test: Antibacterial activity against Acinetobacter baumannii isolate 894 after 24 hrs by CLSI microdilution method; details: isolate 894, 24 h
# [47] = test system: Acinetobacter baumannii; test: Antibacterial activity against Acinetobacter baumannii isolate 896 after 24 hrs by CLSI microdilution method; details: isolate 896, 24 h
# [48] = test system: Acinetobacter baumannii; test: Antibacterial activity against Acinetobacter baumannii isolate 898 after 24 hrs by CLSI microdilution method; details: isolate 898, 24 h
# [49] = test system: Acinetobacter baumannii; test: Antibacterial activity against Acinetobacter baumannii isolate 900 after 24 hrs by CLSI microdilution method; details: isolate 900, 24 h
# [50] = test system: Acinetobacter baumannii; test: Antibacterial activity against Acinetobacter baumannii isolate 902 after 24 hrs by CLSI microdilution method; details: isolate 902, 24 h
# [51] = test system: Acinetobacter baumannii; test: Antibacterial activity against Acinetobacter baumannii isolate 907 after 24 hrs by CLSI microdilution method; details: isolate 907, 24 h
# [52] = test system: Acinetobacter baumannii; test: Antibacterial activity against Acinetobacter baumannii isolate 908 after 24 hrs by CLSI microdilution method; details: isolate 908, 24 h
# [53] = test system: Acinetobacter baumannii; test: Antibacterial activity against Acinetobacter baumannii isolate 909 after 24 hrs by CLSI microdilution method; details: isolate 909, 24 h
# [54] = test system: Acinetobacter baumannii; test: Antibacterial activity against Acinetobacter baumannii isolate 911 after 24 hrs by CLSI microdilution method; details: isolate 911, 24 h
# [55] = test system: Acinetobacter baumannii; test: Antibacterial activity against Acinetobacter baumannii isolate 912 after 24 hrs by CLSI microdilution method; details: isolate 912, 24 h
# [56] = test system: Acinetobacter baumannii; test: Antibacterial activity against Acinetobacter baumannii isolate 915 after 24 hrs by CLSI microdilution method; details: isolate 915, 24 h
# [57] = test system: Acinetobacter baumannii; test: Antibacterial activity against Acinetobacter baumannii isolate 923 after 24 hrs by CLSI microdilution method; details: isolate 923, 24 h
# [58] = test system: Acinetobacter baumannii; test: Antibacterial activity against Acinetobacter baumannii isolate 925 after 24 hrs by CLSI microdilution method; details: isolate 925, 24 h
# [59] = test system: Acinetobacter baumannii; test: Antibacterial activity against Acinetobacter baumannii isolate 926 after 24 hrs by CLSI microdilution method; details: isolate 926, 24 h
compound,measurement,setting,value
C[C@@H](O)[C@H]1C(=O)N2C(C(=O)O)=C(S[C@@H]3CN[C@H](C(=O)N(C)C)C3)[C@H](C)[C@H]12 [MEROPENEM],MIC,[1],0.5 µg/mL
same,MIC,[2],0.25 µg/mL
same,MIC,[3],256 µg/mL
same,MIC,[4],32 µg/mL
same,MIC,[5],2 µg/mL
same,MIC,[6],1 µg/mL
same,MIC,[7],1 µg/mL
same,MIC,[8],1 µg/mL
same,MIC,[9],0.25 µg/mL
same,MIC,[10],16 µg/mL
same,MIC,[11],2 µg/mL
same,MIC,[12],2 µg/mL
same,MIC,[13],0.5 µg/mL
same,MIC,[14],0.12 µg/mL
same,MIC,[15],4 µg/mL
same,MIC,[16],1 µg/mL
same,MIC,[17],0.5 µg/mL
same,MIC,[18],0.5 µg/mL
same,MIC,[19],0.5 µg/mL
same,MIC,[20],1 µg/mL
same,MIC,[21],1 µg/mL
same,MIC,[22],0.25 µg/mL
same,MIC,[23],2 µg/mL
same,MIC,[24],2 µg/mL
same,MIC,[25],2 µg/mL
same,MIC,[26],0.12 µg/mL
same,MIC,[27],0.25 µg/mL
same,MIC,[28],2 µg/mL
same,MIC,[29],16 µg/mL
same,MIC,[30],0.12 µg/mL
same,MIC,[31],0.25 µg/mL
same,MIC,[32],1 µg/mL
same,MIC,[33],1 µg/mL
same,MIC,[34],0.5 µg/mL
same,MIC,[35],0.25 µg/mL
same,MIC,[36],2 µg/mL
same,MIC,[37],1 µg/mL
same,MIC,[38],16 µg/mL
same,MIC,[39],2 µg/mL
same,MIC,[40],0.5 µg/mL
same,MIC,[41],256 µg/mL
same,MIC,[42],1 µg/mL
same,MIC,[43],8 µg/mL
same,MIC,[44],8 µg/mL
same,MIC,[45],1 µg/mL
same,MIC,[46],2 µg/mL
same,MIC,[47],2 µg/mL
same,MIC,[48],8 µg/mL
same,MIC,[49],0.5 µg/mL
same,MIC,[50],1 µg/mL
same,MIC,[51],0.5 µg/mL
same,MIC,[52],2 µg/mL
same,MIC,[53],1 µg/mL
same,MIC,[54],16 µg/mL
same,MIC,[55],4 µg/mL
same,MIC,[56],0.5 µg/mL
same,MIC,[57],0.5 µg/mL
same,MIC,[58],1 µg/mL
same,MIC,[59],32 µg/mL
